According to patent US20240246946A1, “MODULATORS OF TREX1” (Constellation Pharmaceuticals, Inc., priority 2021, published 2024):

Columns and labels:
full length human TREX1 = target: T1, full length human TREX1 (Homo sapiens, UniProt Q9NSU2); experiment: hTREX1 Biochemical Assay (fluorescence, dsDNA substrate degradation); settings: biochemical, read-out: hTREX1 IC50
T1 construct: N-terminally His-Tev tagged full length human TREX1; made in house; host or cells: E. coli
T1 sequence (Q9NSU2 1-314): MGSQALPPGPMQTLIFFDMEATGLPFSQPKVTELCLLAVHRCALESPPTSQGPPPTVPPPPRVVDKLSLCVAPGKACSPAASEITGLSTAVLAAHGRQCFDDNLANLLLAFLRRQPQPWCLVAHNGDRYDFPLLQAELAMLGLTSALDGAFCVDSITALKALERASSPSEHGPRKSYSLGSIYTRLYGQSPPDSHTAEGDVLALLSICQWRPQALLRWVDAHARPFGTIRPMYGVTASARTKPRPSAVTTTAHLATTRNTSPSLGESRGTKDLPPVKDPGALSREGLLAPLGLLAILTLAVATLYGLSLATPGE
In short: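 Cleavage of 60 nM TEX615/quencher-labelled dsDNA in pH 7.4 Tris buffer with 5 mM MgCl2, 1.0% DMSO, run 18 hours at 25° C, EDTA-quenched; fluorescence read-out.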

full length mouse TREX1 = target: T2, full length mouse TREX1 (Mus musculus, UniProt Q91XB0); experiment: mTREX1 Biochemical Assay (fluorescence, dsDNA substrate degradation); settings: biochemical, read-out: mTREX1 IC50
T2 construct: N-terminally His-Tev tagged full length mouse TREX1; made in house; host or cells: E. coli
T2 sequence (Q91XB0 1-314): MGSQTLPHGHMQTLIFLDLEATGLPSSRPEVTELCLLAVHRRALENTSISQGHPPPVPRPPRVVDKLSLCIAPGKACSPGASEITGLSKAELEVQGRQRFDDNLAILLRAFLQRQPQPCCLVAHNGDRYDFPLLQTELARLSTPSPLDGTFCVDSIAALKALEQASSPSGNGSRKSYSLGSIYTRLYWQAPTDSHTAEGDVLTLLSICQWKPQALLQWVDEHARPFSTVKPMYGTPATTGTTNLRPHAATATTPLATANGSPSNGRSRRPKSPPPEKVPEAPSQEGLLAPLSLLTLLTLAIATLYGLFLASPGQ
In short: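 Reaction run 18 h at 25° C. with 60 nM TEX615/quencher-labelled dsDNA and 6 pM mouse TREX1 in Tris buffer (pH 7.4, 5 mM MgCl2, 1.0% DMSO), enzyme having sat 4 h with compound across 10 concentrations. EDTA quench; substrate degradation measured as fluorescence increase.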

[1] = target: T3, human TREX2 (residues M44-A279) (Homo sapiens, UniProt Q9BQ50); experiment: hTREX2 Biochemical Assay (fluorescence, dsDNA substrate degradation); settings: biochemical selectivity for hTREX1 vs hTREX2
T3 construct: human TREX2 (residues M44-A279, expressed in E. coli); made in house; host or cells: E. coli
T3 sequence (Q9BQ50 44-279 isoform Q9BQ50-1): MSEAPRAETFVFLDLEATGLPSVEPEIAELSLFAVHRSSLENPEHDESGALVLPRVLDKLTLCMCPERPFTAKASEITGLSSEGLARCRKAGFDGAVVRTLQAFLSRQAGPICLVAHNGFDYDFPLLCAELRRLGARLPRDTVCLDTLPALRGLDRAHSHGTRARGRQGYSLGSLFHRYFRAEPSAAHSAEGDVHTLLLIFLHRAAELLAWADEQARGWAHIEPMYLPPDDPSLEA
Procedure: Degradation of the dsDNA liberates free fluorophore to produce a fluorescent signal. Specifically, 7.5 μL of N-terminally His-Tev tagged human TREX2 (residues M44-A279, expressed in E. coli and purified in house) in reaction buffer (50 mM Tris, 150 mM NaCl, 2 mM DTT, 0.1 mg/mL BSA, 0.01% (w/v) Tween-20, 5 mM MgCl2, pH 7.4) was added to a 384-well Black ProxiPlate Plus (PerkinElmer) which already contained compound (150 nL) at varying concentrations as a 10 point dose-response in DMSO. The plate was incubated at 25° C. for 4 hours. Reactions were initiated by adding 7.5 μL of dsDNA substrate (Strand A: 5′ TEX615/GCT AGG CAG 3′; Strand B: 5′ CTG CCT AGC/IAbRQSp (IDT)) in reaction buffer. Final concentrations were 50 pM TREX2, 60 nM dsDNA substrate in reaction buffer with 1.0% DMSO (v/v). After 18 hours at 25° C., reactions were quenched by the addition of 2 μL of 500 mM EDTA. Final concentrations in the quenched reaction mixture were 44 pM TREX2, 53 nM DNA and 59 mM EDTA in a volume of 17 μL. After a 5-minute incubation at room temperature, plates were read in an EnVision plate reader (PerkinElmer) measuring fluorescence at 615 nm following excitation w/570 nm light.

Row | SMILES | IC50 (full length human TREX1) [nM] | IC50 (full length mouse TREX1) [nM] | hTREX1 vs hTREX2 selectivity [1]
1 | CC(c1nc(C(=O)Nc2cnoc2)c(O)c(=O)n1C)C(c1cn[nH]c1)c1ccccc1C#N (single isomer, unassigned) [Example 12 D1E2] | > 10 | > 10 | B (B = 25 to 50-fold selective for hTREX1)
2 | CCn1cc(C(c2ccccc2C#N)C(C)c2nc(C(=O)Nc3cnoc3)c(O)c(=O)n2C)cn1 (single isomer, unassigned) [Example 13 D1E2] | > 10 | > 10 | B (B = 25 to 50-fold selective for hTREX1)
3 | CC(c1nc(C(=O)Nc2cnoc2)c(O)c(=O)n1C)C(c1cnn(C)c1)c1ccc(F)cc1C#N (single isomer, unassigned) [Example 15 D2E1] | > 10 | > 10 | B (B = 25 to 50-fold selective for hTREX1)
4 | CCn1cc(C(c2cc(F)ccc2C#N)C(C)c2nc(C(=O)Nc3cnoc3)c(O)c(=O)n2C)cn1 (single isomer, unassigned) [Example 17 D2E1] | > 10 | > 10 | B (B = 25 to 50-fold selective for hTREX1)
5 | CC(c1nc(C(=O)Nc2cnoc2)c(O)c(=O)n1C)C(c1cnn(CCN2CCOCC2)c1)c1ccccc1C#N (single isomer, unassigned) [Example 20 D2E1] | > 10 | > 10 | B (B = 25 to 50-fold selective for hTREX1)
6 | CC(c1nc(C(=O)Nc2cnoc2)c(O)c(=O)n1C)C(c1cnn(CCN2CCN(C(=O)OC(C)(C)C)CC2)c1)c1ccccc1C#N (single isomer, unassigned) [Example 21 D2E1] | > 10 | > 10 | B (B = 25 to 50-fold selective for hTREX1)
7 | CC(c1nc(C(=O)Nc2cnoc2)c(O)c(=O)n1C)C(c1cnn(CC(F)(F)F)c1)c1ccccc1C#N (single isomer, unassigned) [Example 22 D2E1] | > 10 | > 10 | B (B = 25 to 50-fold selective for hTREX1)
8 | CC(c1nc(C(=O)Nc2cnoc2)c(O)c(=O)n1C)C(c1cnn(C)c1)c1cc(Cl)ccc1C#N (single isomer, unassigned) [Example 26 D2E1] | > 10 | > 10 | B (B = 25 to 50-fold selective for hTREX1)
9 | CC(c1nc(C(=O)Nc2cnoc2)c(O)c(=O)n1C)C(c1cnn(C)c1)c1ccc(Cl)cc1C#N (single isomer, unassigned) [Example 27 D1E2] | > 10 | > 10 | C (C = >50 fold selective for hTREX1)
10 | CC(c1nc(C(=O)Nc2cnoc2)c(O)c(=O)n1C)C(c1cnn(CCN2CCN(C)CC2)c1)c1ccccc1C#N (single isomer, unassigned) [Example 32 D2E1] | > 10 | > 10 | C (C = >50 fold selective for hTREX1)
11 | CC(c1nc(C(=O)Nc2cnoc2)c(O)c(=O)n1C)C(c1cnn(CCCN(C)C)c1)c1ccccc1C#N (single isomer, unassigned) [Example 34 D2E1] | > 10 | > 10 | C (C = >50 fold selective for hTREX1)
12 | CC(c1nc(C(=O)Nc2cnoc2)c(O)c(=O)n1C)C(c1cnn(CC(C)(C)O)c1)c1ccccc1C#N (single isomer, unassigned) [Example 36 D2E1] | > 10 | > 10 | B (B = 25 to 50-fold selective for hTREX1)
13 | Cn1cc(C(c2ccccc2C#N)C(c2nc(C(=O)Nc3cnoc3)c(O)c(=O)n2C)C(F)(F)F)cn1 (single isomer, unassigned) [Example 40 D2E2] | > 10 | > 10 | B (B = 25 to 50-fold selective for hTREX1)
14 | Cc1nn(C)cc1C(c1cc(F)ccc1C#N)C(c1nc(C(=O)Nc2cnoc2)c(O)c(=O)n1C)C(F)(F)F (single isomer, unassigned) [Example 42 D2E1] | 1 to 10 | > 10 | B (B = 25 to 50-fold selective for hTREX1)
15 | Cc1ncc(C(c2ccccc2Cl)C(C)c2nc(C(=O)Nc3cnoc3)c(O)c(=O)n2C)cn1 (single isomer, unassigned) [Example 44 D1E1] | > 10 | > 10 | A (A = <25 fold selective for hTREX1)
16 | Cc1ncc(C(c2ccccc2Cl)C(C)c2nc(C(=O)Nc3cnoc3)c(O)c(=O)n2C)cn1 (single isomer, unassigned) [Example 44 D2E2] | > 10 | > 10 | A (A = <25 fold selective for hTREX1)
17 | CC(c1nc(C(=O)Nc2cnoc2)c(O)c(=O)n1C)C(c1ccccc1Cl)n1cccn1 (single isomer, unassigned) [Example 45 D1E2] | > 10 | > 10 | A (A = <25 fold selective for hTREX1)
18 | CC(c1nc(C(=O)Nc2cnoc2)c(O)c(=O)n1C)C(c1cocn1)c1ccccc1C#N (single isomer, unassigned) [Example 50 D2E1] | > 10 | > 10 | C (C = >50 fold selective for hTREX1)

More lines, now with the values ahead:

Row | IC50 (full length human TREX1) [nM] | IC50 (full length mouse TREX1) [nM] | hTREX1 vs hTREX2 selectivity [1] | SMILES
19 | > 10 | > 10 | A (A = <25 fold selective for hTREX1) | CC(c1nc(C(=O)Nc2cnoc2)c(O)c(=O)n1C)C(c1cnn(C)c1)c1cc(F)ccc1C#N (single isomer, unassigned) [Example 14 D2E1]
20 | 1 to 10 | > 10 | C (C = >50 fold selective for hTREX1) | CC(c1nc(C(=O)Nc2cnoc2)c(O)c(=O)n1C)C(c1cn(C)cn1)c1ccccc1C#N (single isomer, unassigned) [Example 39 D2E2]
21 | < 1 | < 1 | C (C = >50 fold selective for hTREX1) | CCn1cc(C(c2ccc(F)cc2C#N)C(C)c2nc(C(=O)Nc3cnoc3)c(O)c(=O)n2C)c(C)n1 (single isomer, unassigned) [Example 55 D1E1]
22 | 1 to 10 | > 10 | C (C = >50 fold selective for hTREX1) | CCn1cc(C(c2ccc(F)cc2C#N)C(C)c2nc(C(=O)Nc3cnoc3)c(O)c(=O)n2C)c(C)n1 (single isomer, unassigned) [Example 55 D2E2]
23 | < 1 | < 1 | C (C = >50 fold selective for hTREX1) | Cc1nn(C)cc1C(c1ccc(F)cc1C#N)C(C)c1nc(C(=O)Nc2cnoc2)c(O)c(=O)n1C (single isomer, unassigned) [Example 56 D1E1]
24 | 1 to 10 | > 10 | C (C = >50 fold selective for hTREX1) | Cc1nn(C)cc1C(c1cc(F)ccc1C#N)C(C)c1nc(C(=O)Nc2cnoc2)c(O)c(=O)n1C (single isomer, unassigned) [Example 57 D2E1]
25 | 1 to 10 | > 10 | A (A = <25 fold selective for hTREX1) | CCn1cc(C(c2cc(F)ccc2Cl)C(C)c2nc(C(=O)Nc3cnoc3)c(O)c(=O)n2C)cn1 (single isomer, unassigned) [Example 60 D1E2]
